Source: ChEMBL document CHEMBL4219262, “Design, synthesis and evaluation of benzoheterocycle analogues as potent antifungal agents targeting CYP51” (Bioorg Med Chem, 2018)
≈ marks a conversion by molar mass, not a printed value.

Key:
Cryptococcus neoformans = assay: Antifungal activity against Cryptococcus neoformans cgmcc 2.3161 after 72 hrs by serial dilution method; assay type: functional; conditions: cgmcc 2.3161, 72 h
Candida tropicalis = assay: Antifungal activity against Candida tropicalis cgmcc 2.3739 after 24 hrs by serial dilution method; assay type: functional; conditions: cgmcc 2.3739, 24 h
Aspergillus fumigatus = assay: Antifungal activity against Aspergillus fumigatus cgmcc 3.7795 after 7 days by serial dilution method; assay type: functional; conditions: cgmcc 3.7795, 168 h
Candida albicans [1] = assay: Antifungal activity against Candida albicans CPCC 400523 after 24 hrs by serial dilution method; assay type: functional; conditions: CPCC 400523, 24 h
Candida albicans [2] = assay: Antifungal activity against Candida albicans ATCC SC5314 after 24 hrs by serial dilution method; assay type: functional; conditions: SC5314, 24 h
Candida albicans [3] = assay: Antifungal activity against fluconazole-resistant Candida albicans strain 100 after 24 hrs by serial dilution method; assay type: functional; conditions: Candida albicans, 100, 24 h
Candida albicans [4] = assay: Antifungal activity against fluconazole-resistant Candida albicans strain 103 after 24 hrs by serial dilution method; assay type: functional; conditions: Candida albicans, 103, 24 h
[5] = Stability in human plasma assessed as parent compound remaining at 2 uM after 60 mins by LC-MS/MS analysis; assay type: ADME, cell-free; conditions: read-out: Stability
[6] = Stability in human plasma assessed as parent compound remaining at 2 uM after 120 mins by LC-MS/MS analysis; assay type: ADME, cell-free; conditions: read-out: Stability

Q: Which MIC (Cryptococcus neoformans) does the source give for CC(C)OC(=O)[C@H](Cn1ccnc1)NC(=O)c1cnc2ccccc2n1 here?
A: 64 µg/mL (≈ 181 µM)

Q: What about the MIC (Candida tropicalis) of the same compound?
A: 16 µg/mL (≈ 45.3 µM)

Q: What about the MIC (Aspergillus fumigatus) of the same compound?
A: 64 µg/mL (≈ 181 µM)

Q: And the MIC (Candida albicans [1])?
A: 64 µg/mL (≈ 181 µM)

Q: What about the MIC (Candida albicans [2]) of the same compound?
A: 64 µg/mL (≈ 181 µM)

Q: For CC(C)COC(=O)[C@H](Cn1ccnc1)NC(=O)c1ccc2c(c1)OCO2, which MIC (Cryptococcus neoformans) is on record?
A: 64 µg/mL (≈ 178 µM)

Q: What about the MIC (Candida tropicalis) of the same compound?
A: 16 µg/mL (≈ 44.5 µM)

Q: And the MIC (Aspergillus fumigatus)?
A: 64 µg/mL (≈ 178 µM)

Q: What about the MIC (Candida albicans [1]) of the same compound?
A: 64 µg/mL (≈ 178 µM)

Q: What about the MIC (Candida albicans [2]) of the same compound?
A: 64 µg/mL (≈ 178 µM)

Q: Which MIC (Cryptococcus neoformans) does the source give for CC(C)OC(=O)[C@H](Cn1ccnc1)NC(=O)c1cc2ccc(F)cc2[nH]1 here?
A: 8 µg/mL (≈ 22.3 µM)

Q: What about the MIC (Candida tropicalis) of the same compound?
A: 0.5 µg/mL (≈ 1.4 µM)

Q: What about the MIC (Aspergillus fumigatus) of the same compound?
A: 64 µg/mL (≈ 179 µM)

Q: What about the MIC (Candida albicans [1]) of the same compound?
A: 32 µg/mL (≈ 89.3 µM)

Q: And the MIC (Candida albicans [2])?
A: 32 µg/mL (≈ 89.3 µM)

Q: For COc1ccc2c(c1)CCc1c(C(=O)N[C@@H](Cn3ccnc3)C(=O)OC(C)C)noc1-2, which MIC (Cryptococcus neoformans) is on record?
A: 64 µg/mL (≈ 151 µM)

Q: What about the MIC (Candida tropicalis) of the same compound?
A: 8 µg/mL (≈ 18.8 µM)

Q: And the MIC (Aspergillus fumigatus)?
A: 64 µg/mL (≈ 151 µM)

Q: What about the MIC (Candida albicans [1]) of the same compound?
A: 4 µg/mL (≈ 9.42 µM)

Q: What about the MIC (Candida albicans [2]) of the same compound?
A: 0.25 µg/mL (≈ 0.589 µM)

Q: Which MIC (Cryptococcus neoformans) does the source give for CC(C)COC(=O)[C@H](Cn1ccnc1)NC(=O)c1cc2ccccc2o1 here?
A: 4 µg/mL (≈ 11.3 µM)

Q: What about the MIC (Candida tropicalis) of the same compound?
A: 0.25 µg/mL (≈ 0.703 µM)

Q: What about the MIC (Aspergillus fumigatus) of the same compound?
A: 32 µg/mL (≈ 90 µM)

Q: What about the MIC (Candida albicans [1]) of the same compound?
A: 8 µg/mL (≈ 22.5 µM)

Q: What about the MIC (Candida albicans [2]) of the same compound?
A: 8 µg/mL (≈ 22.5 µM)

Q: What does the source list for CC(C)OC(=O)[C@H](Cn1ccnc1)NC(=O)c1nc2ccc(Br)cc2s1?
A: MIC (Cryptococcus neoformans): 2 µg/mL (≈ 4.57 µM); MIC (Candida tropicalis): 1 µg/mL (≈ 2.29 µM); MIC (Aspergillus fumigatus): > 64 µg/mL; MIC (Candida albicans [1]): 0.5 µg/mL (≈ 1.14 µM); MIC (Candida albicans [2]): 0.125 µg/mL (≈ 0.286 µM)

Q: Which results are given for CC(C)OC(=O)[C@H](Cn1ccnc1)NC(=O)c1nc2ccccc2[nH]1?
A: MIC (Cryptococcus neoformans): 64 µg/mL (≈ 187 µM); MIC (Candida tropicalis): 64 µg/mL (≈ 187 µM); MIC (Aspergillus fumigatus): 64 µg/mL (≈ 187 µM); MIC (Candida albicans [1]): 64 µg/mL (≈ 187 µM); MIC (Candida albicans [2]): 64 µg/mL (≈ 187 µM)

Q: Which results are given for CC(C)OC(=O)[C@H](Cn1ccnc1)NC(=O)c1ccc2c(c1)OCO2?
A: MIC (Cryptococcus neoformans): 64 µg/mL (≈ 185 µM); MIC (Candida tropicalis): 32 µg/mL (≈ 92.7 µM); MIC (Aspergillus fumigatus): 64 µg/mL (≈ 185 µM); MIC (Candida albicans [1]): 64 µg/mL (≈ 185 µM); MIC (Candida albicans [2]): 64 µg/mL (≈ 185 µM)

Q: Which MIC (Cryptococcus neoformans) does the source give for CC(C)OC(=O)[C@H](Cn1ccnc1)NC(=O)c1cc2ccccc2n1C here?
A: 64 µg/mL (≈ 181 µM)

Q: And the MIC (Candida tropicalis)?
A: 0.5 µg/mL (≈ 1.41 µM)

Q: And the MIC (Aspergillus fumigatus)?
A: 64 µg/mL (≈ 181 µM)

Q: What about the MIC (Candida albicans [1]) of the same compound?
A: 8 µg/mL (≈ 22.6 µM)

Q: What about the MIC (Candida albicans [2]) of the same compound?
A: 8 µg/mL (≈ 22.6 µM)

Q: For Cc1nc2ccc(C(=O)N[C@@H](Cn3ccnc3)C(=O)OC(C)C)cc2o1, which MIC (Cryptococcus neoformans) is on record?
A: 64 µg/mL (≈ 180 µM)

Q: What about the MIC (Candida tropicalis) of the same compound?
A: 64 µg/mL (≈ 180 µM)

Q: And the MIC (Aspergillus fumigatus)?
A: 64 µg/mL (≈ 180 µM)

Q: What about the MIC (Candida albicans [1]) of the same compound?
A: 64 µg/mL (≈ 180 µM)

Q: And the MIC (Candida albicans [2])?
A: 64 µg/mL (≈ 180 µM)

Q: Which results are given for COc1ccc2c(c1)-c1onc(C(=O)N[C@@H](Cn3ccnc3)C(=O)OC(C)C)c1CC2?
A: MIC (Cryptococcus neoformans): 64 µg/mL (≈ 151 µM); MIC (Candida tropicalis): 2 µg/mL (≈ 4.71 µM); MIC (Aspergillus fumigatus): 64 µg/mL (≈ 151 µM); MIC (Candida albicans [1]): 16 µg/mL (≈ 37.7 µM); MIC (Candida albicans [2]): 0.25 µg/mL (≈ 0.589 µM)

Q: Which MIC (Cryptococcus neoformans) does the source give for CC(C)COC(=O)[C@H](Cn1ccnc1)NC(=O)c1cc2ccccc2n1C here?
A: 4 µg/mL (≈ 10.9 µM)

Q: And the MIC (Candida tropicalis)?
A: 1 µg/mL (≈ 2.71 µM)

Q: What about the MIC (Aspergillus fumigatus) of the same compound?
A: 64 µg/mL (≈ 174 µM)

Q: And the MIC (Candida albicans [1])?
A: 8 µg/mL (≈ 21.7 µM)

Q: And the MIC (Candida albicans [2])?
A: 8 µg/mL (≈ 21.7 µM)

Q: For CC(C)OC(=O)[C@H](Cn1ccnc1)NC(=O)c1ccc2ncoc2c1, which MIC (Cryptococcus neoformans) is on record?
A: 64 µg/mL (≈ 187 µM)

Q: And the MIC (Candida tropicalis)?
A: 32 µg/mL (≈ 93.5 µM)

Q: What about the MIC (Aspergillus fumigatus) of the same compound?
A: 64 µg/mL (≈ 187 µM)

Q: And the MIC (Candida albicans [1])?
A: 64 µg/mL (≈ 187 µM)

Q: What about the MIC (Candida albicans [2]) of the same compound?
A: 64 µg/mL (≈ 187 µM)

Q: Which results are given for CC(C)COC(=O)[C@H](Cn1ccnc1)NC(=O)c1cnc2ccccc2c1?
A: MIC (Cryptococcus neoformans): 64 µg/mL (≈ 175 µM); MIC (Candida tropicalis): 32 µg/mL (≈ 87.3 µM); MIC (Aspergillus fumigatus): 64 µg/mL (≈ 175 µM); MIC (Candida albicans [1]): 64 µg/mL (≈ 175 µM); MIC (Candida albicans [2]): 64 µg/mL (≈ 175 µM)

Q: Which MIC (Cryptococcus neoformans) does the source give for CC(C)OC(=O)[C@H](Cn1ccnc1)NC(=O)c1noc2c1CCCc1ccccc1-2 here?
A: 64 µg/mL (≈ 157 µM)

Q: And the MIC (Candida tropicalis)?
A: 1 µg/mL (≈ 2.45 µM)

Q: And the MIC (Aspergillus fumigatus)?
A: 64 µg/mL (≈ 157 µM)

Q: And the MIC (Candida albicans [1])?
A: 2 µg/mL (≈ 4.9 µM)

Q: And the MIC (Candida albicans [2])?
A: 16 µg/mL (≈ 39.2 µM)

Q: Which MIC (Cryptococcus neoformans) does the source give for CC(C)OC(=O)[C@H](Cn1ccnc1)NC(=O)c1cnc2ccccc2c1 here?
A: 64 µg/mL (≈ 182 µM)

Q: What about the MIC (Candida tropicalis) of the same compound?
A: 32 µg/mL (≈ 90.8 µM)

Q: What about the MIC (Aspergillus fumigatus) of the same compound?
A: 64 µg/mL (≈ 182 µM)

Q: And the MIC (Candida albicans [1])?
A: 64 µg/mL (≈ 182 µM)

Q: What about the MIC (Candida albicans [2]) of the same compound?
A: 64 µg/mL (≈ 182 µM)

Q: With CC(C)OC(=O)[C@H](Cn1ccnc1)NC(=O)c1cc2ccccc2o1 as the compound, how does the MIC (Cryptococcus neoformans) read?
A: 4 µg/mL (≈ 11.7 µM)

Q: What about the MIC (Candida tropicalis) of the same compound?
A: 0.5 µg/mL (≈ 1.46 µM)

Q: And the MIC (Aspergillus fumigatus)?
A: 32 µg/mL (≈ 93.7 µM)

Q: And the MIC (Candida albicans [1])?
A: 32 µg/mL (≈ 93.7 µM)

Q: What about the MIC (Candida albicans [2]) of the same compound?
A: 16 µg/mL (≈ 46.9 µM)

Q: For CC(C)COC(=O)[C@H](Cn1ccnc1)NC(=O)c1noc2c1ccc1ccccc12, which MIC (Cryptococcus neoformans) is on record?
A: 0.125 µg/mL (≈ 0.308 µM)

Q: What about the MIC (Candida tropicalis) of the same compound?
A: 0.125 µg/mL (≈ 0.308 µM)

Q: And the MIC (Candida albicans [3])?
A: 2 µg/mL (≈ 4.92 µM)

Q: And the MIC (Candida albicans [4])?
A: 2 µg/mL (≈ 4.92 µM)

Q: What about the MIC (Aspergillus fumigatus) of the same compound?
A: 16 µg/mL (≈ 39.4 µM)

Q: And the MIC (Candida albicans [1])?
A: 0.25 µg/mL (≈ 0.615 µM)

Q: And the MIC (Candida albicans [2])?
A: 0.125 µg/mL (≈ 0.308 µM)

Q: What does the source list for CC(C)COC(=O)[C@H](Cn1ccnc1)NC(=O)c1noc2c1CCc1ccccc1-2?
A: MIC (Cryptococcus neoformans): 4 µg/mL (≈ 9.79 µM); MIC (Candida tropicalis): 0.125 µg/mL (≈ 0.306 µM); MIC (Candida albicans [3]): 1 µg/mL (≈ 2.45 µM); MIC (Candida albicans [4]): 0.5 µg/mL (≈ 1.22 µM); MIC (Aspergillus fumigatus): 8 µg/mL (≈ 19.6 µM); MIC (Candida albicans [1]): 0.5 µg/mL (≈ 1.22 µM); MIC (Candida albicans [2]): 0.125 µg/mL (≈ 0.306 µM)

Q: With CC(C)COC(=O)[C@H](Cn1ccnc1)NC(=O)c1cc2ccccc2s1 as the compound, how does the MIC (Cryptococcus neoformans) read?
A: 1 µg/mL (≈ 2.69 µM)

Q: And the MIC (Candida tropicalis)?
A: 0.25 µg/mL (≈ 0.673 µM)

Q: And the MIC (Aspergillus fumigatus)?
A: 8 µg/mL (≈ 21.5 µM)

Q: And the MIC (Candida albicans [1])?
A: 1 µg/mL (≈ 2.69 µM)

Q: What about the MIC (Candida albicans [2]) of the same compound?
A: 0.5 µg/mL (≈ 1.35 µM)

Q: Which MIC (Cryptococcus neoformans) does the source give for CC(C)OC(=O)[C@H](Cn1ccnc1)NC(=O)c1noc2c1ccc1ccccc12 here?
A: 0.25 µg/mL (≈ 0.637 µM)

Q: What about the MIC (Candida tropicalis) of the same compound?
A: 0.125 µg/mL (≈ 0.319 µM)

Q: What about the remaining at 1 h, 2 µM [5] of the same compound?
A: 95.8%

Q: And the MIC (Candida albicans [3])?
A: 2 µg/mL (≈ 5.1 µM)

Q: And the MIC (Candida albicans [4])?
A: 1 µg/mL (≈ 2.55 µM)

Q: And the MIC (Aspergillus fumigatus)?
A: 4 µg/mL (≈ 10.2 µM)

Q: And the remaining at 2 h, 2 µM [6]?
A: 91.7%

Q: And the MIC (Candida albicans [1])?
A: 0.25 µg/mL (≈ 0.637 µM)

Q: And the MIC (Candida albicans [2])?
A: 0.125 µg/mL (≈ 0.319 µM)
